Laboratory results taken from patent US20070014734A1, “Glucuronidated nebivolol metabolites” (priority 2005, published 2007).

Assays:
[1] = tested on: Human Umbilical Vein Endothelial Cells (HUVEC); assay: Acute NO release from HUVEC of white and black American donors, electrochemical nanosensors; format: cell-based; settings: for Acute NO Release, Black Donors NO: HUVEC from black American donors; for Acute NO Release, Black Donors NO / Acute NO Release, White Donors NO: acute treatment 1.0 μM, mean±S.D. (n=5); for Acute NO Release, White Donors NO: HUVEC from white donors; for Acute [NO]/[ONOO−] Release Ratio, Black Donors / Acute [NO]/[ONOO−] Release Ratio, White Donors: ratio of NO (Table 1) to ONOO− (Table 3); for NO release after acute treatment (in words): endothelial cells from both white and black American donors, 1.0 μM
Experimental: The acute effects of nebivolol racemate, its separate enantiomers, and four stereoselective glucuronide metabolites on endothelial-dependent NO release were tested in Human Umbilical Vein Endothelial Cells (HUVEC). The tissue is isolated from normotensive white and black American donors with matched risk factor profiles. Production of NO is recorded using electrochemical nanosensors following acute treatment with the drugs at 1.0 μM (n=5).
(§1) The donors were between 20-25 years of age, with a mean body mass index (in kg/m^2), of 22.6±1.4 for white donors and 23.1±1.7 for black donors. The identification of race was defined by self report. For FIGS. 1-3, the HUvEC samples were obtained from American Type Culture Collection (Manassas, Va.).
The baseline is stabilized after about 20 seconds.
Nanosensors are prepared from carbon fibers.

[2] = tested on: human endothelial cells; assay: Acute ONOO− (peroxynitrite) release from human endothelial cells of white and black donors; format: cell-based; settings: acute treatment; for Acute ONOO− Release, Black Donors ONOO−: endothelial cells from black donors; for Acute ONOO− Release, White Donors ONOO−: endothelial cells from white donors; for ONOO− (peroxynitrite) release (in words): human endothelial cells
Description: as §1, with “Va.). […] However, the amount of OONO^− produced for any of the metabolites was less than that observed for nebivolol. The ratio of NO to OONO^− produced by nebivolol and its glucuronide metabolites was similar following acute administration (Table 4).” for “Va.).”

Structure (SMILES) | Acute NO Release, Black Donors NO [1] | Acute NO Release, White Donors NO [1] | Acute [NO]/[ONOO−] Release Ratio, Black Donors [1] | Acute [NO]/[ONOO−] Release Ratio, White Donors [1] | Acute ONOO− Release, Black Donors ONOO− [2] | Acute ONOO− Release, White Donors ONOO− [2] | ONOO− (peroxynitrite) release (in words) [2] | NO release after acute treatment (in words) [1]
O=C(O)C1OC(OC(CNCC(O)C2CCc3cc(F)ccc3O2)C2CCc3cc(F)ccc3O2)C(O)C(O)C1O [G-UDa, d-Nebivolol-11-O-β-D-glucuronide] | 144 ± 10 nM | 202 ± 12 nM | 0.605 | 1.122 | 238 ± 22 nM | 180 ± 16 nM | greatest activity | 
OC(CNCC(O)C1CCc2cc(F)ccc2O1)C1CCc2cc(F)ccc2O1 (racemic) [nebivolol, α,α′-[iminobismethylene]bis[6-fluoro-3,4-dihydro-2H-1-benzopyran-2-methanol]] | 148 ± 10 nM | 218 ± 11 nM | 0.612 | 1.130 | 242 ± 17 nM | 193 ± 16 nM |  | marked improvement
O[C@H](CNC[C@@H](O)[C@H]1CCc2cc(F)ccc2O1)[C@@H]1CCc2cc(F)ccc2O1 [d-nebivolol, reference compound] | 87 ± 6 nM | 127 ± 17 nM | 0.750 | 1.460 | 116 ± 6 nM | 87 ± 6 nM |  | marked improvement
O=C(O)C1OC(OC(CNCC(O)C2CCc3cc(F)ccc3O2)C2CCc3cc(F)ccc3O2)C(O)C(O)C1O [G-UDc, d-Nebivolol-11′-O-β-D-glucuronide] | 129 ± 10 nM | 188 ± 12 nM | 0.632 | 1.133 | 204 ± 13 nM | 166 ± 13 nM |  | 
O[C@@H](CNC[C@H](O)[C@H]1CCc2cc(F)ccc2O1)[C@@H]1CCc2cc(F)ccc2O1 [l-nebivolol, reference compound] | 192 ± 9 nM | 268 ± 12 nM | 0.719 | 1.202 | 267 ± 13 nM | 223 ± 17 nM |  | marked improvement
O=C(O)C1OC(OC(CNCC(O)C2CCc3cc(F)ccc3O2)C2CCc3cc(F)ccc3O2)C(O)C(O)C1O (single isomer, unassigned) [G-UDd, l-Nebivolol-11′-O-β-D-glucuronide] | 117 ± 8 nM | 161 ± 11 nM | 0.606 | 1.193 | 193 ± 17 nM | 135 ± 13 nM |  | 
O=C(O)C1OC(OC(CNCC(O)C2CCc3cc(F)ccc3O2)C2CCc3cc(F)ccc3O2)C(O)C(O)C1O (single isomer, unassigned) [G-UDb, l-Nebivolol-11-O-β-D-glucuronide] | 139 ± 12 nM | 206 ± 12 nM | 0.618 | 1.144 | 225 ± 16 nM | 180 ± 13 nM | greatest activity | 
